Measured values reported in patent US20140228377A1, “METHYLPIPERIDINE DERIVATIVE” (TAISHO PHARMACEUTICAL CO., LTD., priority 2011, published 2014).
pIC50: −log10 of the molar value.

Columns and labels:
[1] = target: T1, human orexin-1 receptor (hOX1R) (Homo sapiens, UniProt O43613); experiment: Orexin antagonistic activity assay (intracellular Ca2+, FDSS) in CHO cells expressing hOX1R; format: cell-based; conditions: CHO cells expressing hOX1R; ligand peptide 300 pM; Fluo-3 maximum fluorescence intensity; read-out: IC50 value OX1
T1 construct: expressed in transfected cells; host or cells: Chinese hamster ovary (CHO) cells
T1 sequence (O43613 1-425): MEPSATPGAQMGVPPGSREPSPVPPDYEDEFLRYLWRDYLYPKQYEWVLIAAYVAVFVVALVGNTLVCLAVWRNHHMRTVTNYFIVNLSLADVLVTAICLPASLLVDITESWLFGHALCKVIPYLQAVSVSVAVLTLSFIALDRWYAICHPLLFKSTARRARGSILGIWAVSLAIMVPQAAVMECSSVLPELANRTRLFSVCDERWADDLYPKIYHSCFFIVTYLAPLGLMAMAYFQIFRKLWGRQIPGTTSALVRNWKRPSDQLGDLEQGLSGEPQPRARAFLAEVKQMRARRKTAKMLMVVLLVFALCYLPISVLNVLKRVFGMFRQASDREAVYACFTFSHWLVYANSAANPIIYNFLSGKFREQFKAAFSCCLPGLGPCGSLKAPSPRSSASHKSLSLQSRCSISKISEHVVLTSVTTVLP
Summary of the method: (§1)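 Recombinant CHO cells, Fluo-3 AM loaded, were preincubated 30 min with compound, then stimulated with a modified orexin-A peptide (300 pM for hOX1R, 3 nM for hOX2R). Peak Ca2+ fluorescence read each second for 3 min; IC50 from concentration-response, normalised to ligand-only (100%) and no-ligand (0%) wells.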

[2] = target: T2, orexin-2 receptor (hOX2R) (Homo sapiens, UniProt O43614); experiment: Orexin antagonistic activity assay (intracellular Ca2+, FDSS) in CHO cells expressing hOX2R; format: cell-based; conditions: CHO cells expressing hOX2R; ligand peptide 3 nM; Fluo-3 maximum fluorescence intensity; read-out: IC50 value OX2
T2 construct: expressed in transfected cells; host or cells: Chinese hamster ovary (CHO) cells
T2 sequence (O43614 1-444): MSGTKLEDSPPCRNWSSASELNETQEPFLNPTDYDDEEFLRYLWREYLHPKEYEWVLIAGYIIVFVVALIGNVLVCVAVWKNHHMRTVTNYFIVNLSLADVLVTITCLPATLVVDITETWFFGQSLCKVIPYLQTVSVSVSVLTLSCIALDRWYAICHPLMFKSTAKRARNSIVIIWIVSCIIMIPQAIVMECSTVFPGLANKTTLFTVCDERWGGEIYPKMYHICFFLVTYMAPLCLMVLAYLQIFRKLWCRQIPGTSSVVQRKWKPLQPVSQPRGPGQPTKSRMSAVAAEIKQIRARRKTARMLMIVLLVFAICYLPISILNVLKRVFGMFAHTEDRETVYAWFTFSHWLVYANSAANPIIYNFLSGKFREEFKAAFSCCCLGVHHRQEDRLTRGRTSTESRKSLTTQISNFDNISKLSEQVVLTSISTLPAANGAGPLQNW
Summary of the method: as §1

[3] = Metabolic stability test using human liver microsomes; format: in vitro ADME; conditions: human liver microsomes 0.25 mg protein/mL, test compound 1 μM, 37° C., 15 minutes, NADPH production system
Procedure: The stability test on a test compound was conducted according to the following method using human liver microsomes (Ms):
The test compound was incubated (37° C., 15 minutes) together with human liver microsome fraction (XenoTech LLC; H630B, lot. 0810472) in a 0.1 M phosphate buffer solution (pH 7.4) in the presence of a NADPH production system (0.16 mM NADP+, 2.5 mM MgCl2, and 1.5 mM glucose-6-phosphate). The final concentrations of the test compound and the liver Ms protein were set to 1 μM and 0.25 mg protein/mL, respectively. After the incubation, the reaction mixture was supplemented with a 2-fold volume of DMSO, stirred, and then centrifuged at 2150×g (4° C., 10 minutes). The obtained supernatant was analyzed using a liquid chromatography tandem mass spectrometry (LC-MS/MS) system. The lower limit of quantification was 0.1 μM.

Cc1ccc(-n2nccn2)c(C(=O)N2C[C@H](c3nc4cc(Cl)ccc4o3)CC[C@H]2C)n1 [Example 1, [(2R,5R)-5-(5-Chloro-1,3-benzoxazol-2-yl)-2-methylpiperidin-1-yl][6-methyl-3-(2H-1,2,3-triazol-2-yl)pyridin-2-yl]methanone]
pIC50 [1]: 7.96 | pIC50 [2]: 7.91 | rate of metabolism [3]: 27.8%

C[C@@H]1CC[C@@H](c2nc3cc(F)ccc3o2)CN1C(=O)c1cc(F)ccc1-c1ncccn1 [Example 32, [(2R,5R)-5-(5-Fluoro-1,3-benzoxazol-2-yl)-2-methylpiperidin-1-yl][5-fluoro-2-(pyrimidin-2-yl)phenyl]methanone]
pIC50 [1]: 7.60 | pIC50 [2]: 8.09

C[C@@H]1CC[C@@H](c2nc3cc(C(F)(F)F)ccc3o2)CN1C(=O)c1cc(F)ccc1-c1ncccn1 [Example 38, [5-Fluoro-2-(pyrimidin-2-yl)phenyl]{(2R,5R)-2-methyl-5-[5-(trifluoromethyl)-1,3-benzoxazol-2-yl]piperidin-1-yl}methanone]
pIC50 [1]: 6.09 | pIC50 [2]: 7.10

Cc1ccc(-n2nccn2)c(C(=O)N2C[C@H](c3nc4ccc(F)c(F)c4o3)CC[C@H]2C)c1 [Example 58, [(2R,5R)-5-(6,7-Difluoro-1,3-benzoxazol-2-yl)-2-methylpiperidin-1-yl][5-methyl-2-(2H-1,2,3-triazol-2-yl)phenyl]methanone]
pIC50 [1]: 8.03 | pIC50 [2]: 8.03

C[C@@H]1CC[C@@H](c2nc3cc(F)ccc3o2)CN1C(=O)c1c(F)cccc1-n1nccn1 [Example 35, [(2R,5R)-5-(5-Fluoro-1,3-benzoxazol-2-yl)-2-methylpiperidin-1-yl][2-fluoro-6-(2H-1,2,3-triazol-2-yl)phenyl]methanone]
pIC50 [1]: 7.04 | pIC50 [2]: 8.30

C[C@@H]1CC[C@@H](c2nc3cc(Cl)ccc3o2)CN1C(=O)c1cccc(F)c1-c1ncccn1 [Example 18, [(2R,5R)-5-(5-Chloro-1,3-benzoxazol-2-yl)-2-methylpiperidin-1-yl][3-fluoro-2-(pyrimidin-2-yl)phenyl]methanone]
pIC50 [1]: 6.52 | pIC50 [2]: 7.23

C[C@@H]1CC[C@@H](c2nc3cc(Cl)ccc3o2)CN1C(=O)c1ccc(F)cc1-c1ncccn1 [Example 17, [(2R,5R)-5-(5-Chloro-1,3-benzoxazol-2-yl)-2-methylpiperidin-1-yl][4-fluoro-2-(pyrimidin-2-yl)phenyl]methanone]
pIC50 [1]: 7.26 | pIC50 [2]: 7.99

Cc1ccc(-n2nccn2)c(C(=O)N2C[C@H](c3nc4c(F)cc(F)cc4o3)CC[C@H]2C)c1 [Example 60, [(2R,5R)-5-(4,6-Difluoro-1,3-benzoxazol-2-yl)-2-methylpiperidin-1-yl][5-methyl-2-(2H-1,2,3-triazol-2-yl)phenyl]methanone]
pIC50 [1]: 7.03 | pIC50 [2]: 7.34

C[C@@H]1CC[C@@H](c2nc3cc(Cl)ccc3o2)CN1C(=O)c1c(F)cccc1-c1ncccn1 [Example 19, [(2R,5R)-5-(5-Chloro-1,3-benzoxazol-2-yl)-2-methylpiperidin-1-yl][2-fluoro-6-(pyrimidin-2-yl)phenyl]methanone]
pIC50 [1]: 7.08 | pIC50 [2]: 8.03

C[C@@H]1CC[C@@H](c2nc3ccc(Cl)cc3o2)CN1C(=O)c1cc(F)ccc1-c1ncccn1 [Example 45, [(2R,5R)-5-(6-Chloro-1,3-benzoxazol-2-yl)-2-methylpiperidin-1-yl][5-fluoro-2-(pyrimidin-2-yl)phenyl]methanone]
pIC50 [1]: 7.11 | pIC50 [2]: 7.91

Cc1ccc(-c2ncccn2)c(C(=O)N2C[C@H](c3nc4ccc(Cl)cc4o3)CC[C@H]2C)c1 [Example 44, [(2R,5R)-5-(6-Chloro-1,3-benzoxazol-2-yl)-2-methylpiperidin-1-yl][5-methyl-2-(pyrimidin-2-yl)phenyl]methanone]
pIC50 [1]: 8.04 | pIC50 [2]: 7.64

Cc1ccc(-c2ncccn2)c(C(=O)N2C[C@H](c3nc4cc(F)cc(F)c4o3)CC[C@H]2C)c1 [Example 63, [(2R,5R)-5-(5,7-Difluoro-1,3-benzoxazol-2-yl)-2-methylpiperidin-1-yl][5-methyl-2-(pyrimidin-2-yl)phenyl]methanone]
pIC50 [1]: 7.54 | pIC50 [2]: 8.26
